ChEMBL document CHEMBL1124085, “Flavins as potential antimalarials. 1. 10-(Halophenyl)-3-methylflavins” (1988)

system: Mus musculus; test: Parenteral antimalarial activity against Plasmodium vinckei vinckei in mice (Mus musculus) measured as % cured and increase in MST (days) at 25 mg/kg dose.; format: functional

Row | Compound | Cured [%]
1 | Cn1c(=O)nc2n(-c3ccc(Cl)cc3Cl)c3ccccc3nc-2c1=O | 0
2 | Cn1c(=O)nc2n(-c3ccc(Cl)c(Cl)c3)c3ccccc3nc-2c1=O | 80
3 | O=c1nc2n(-c3ccc(Cl)cc3)c3ccccc3nc-2c(=O)[nH]1 | 0
4 | Cc1cc(Cl)ccc1-n1c2nc(=O)n(C)c(=O)c-2nc2ccccc21 | 0
5 | Cn1c(=O)nc2n(-c3cccc(F)c3)c3ccccc3nc-2c1=O | 0

system: Mus musculus; test: Parenteral antimalarial activity against Plasmodium vinckei vinckei in mice (Mus musculus) measured as % cured and increase in MST (days) at 30 mg/kg dose.; format: functional

Row | Compound | Cured [%]
6 | Cn1c(=O)nc2n(-c3ccc(Cl)cc3Cl)c3ccccc3nc-2c1=O | 0
7 | Cn1c(=O)nc2n(-c3ccc(Cl)c(Cl)c3)c3ccccc3nc-2c1=O | 60
8 | O=c1nc2n(-c3ccc(Cl)cc3)c3ccccc3nc-2c(=O)[nH]1 | 0
9 | Cc1cc(Cl)ccc1-n1c2nc(=O)n(C)c(=O)c-2nc2ccccc21 | 0
10 | Cn1c(=O)nc2n(-c3cccc(F)c3)c3ccccc3nc-2c1=O | 0

system: Mus musculus; test: Parenteral antimalarial activity against Plasmodium vinckei in mice (Mus musculus) measured as % cured and increase in MST (days) at 15 mg/kg dose.; format: functional

Row | Compound | Cured [%] | MST [days]
11 | Cn1c(=O)nc2n(-c3ccc(Cl)cc3Cl)c3ccccc3nc-2c1=O | 0 | 
12 | Cn1c(=O)nc2n(-c3ccc(Cl)c(Cl)c3)c3ccccc3nc-2c1=O | 60 | 0.5
13 | O=c1nc2n(-c3ccc(Cl)cc3)c3ccccc3nc-2c(=O)[nH]1 | 0 | 0
14 | Cc1cc(Cl)ccc1-n1c2nc(=O)n(C)c(=O)c-2nc2ccccc21 | 0 | 
15 | Cn1c(=O)nc2n(-c3cccc(F)c3)c3ccccc3nc-2c1=O | 0 | 

system: Mus musculus; test: Parenteral antimalarial activity against Plasmodium vinckei vinckei in mice (Mus musculus) measured as % cured and increase in MST (days) at 20 mg/kg dose.; format: functional

Row | Compound | Cured [%] | MST [days]
16 | Cn1c(=O)nc2n(-c3ccc(Cl)cc3Cl)c3ccccc3nc-2c1=O | 0 | 
17 | Cn1c(=O)nc2n(-c3ccc(Cl)c(Cl)c3)c3ccccc3nc-2c1=O | 100 | 
18 | O=c1nc2n(-c3ccc(Cl)cc3)c3ccccc3nc-2c(=O)[nH]1 | 0 | 0
19 | Cc1cc(Cl)ccc1-n1c2nc(=O)n(C)c(=O)c-2nc2ccccc21 | 0 | 
20 | Cn1c(=O)nc2n(-c3cccc(F)c3)c3ccccc3nc-2c1=O | 40 | 

system: Mus musculus; test: Oral antimalarial activity against Plasmodium vinckei in mice (Mus musculus) measured as % cured and increase in MST (days) at 25 mg/kg dose.; format: functional

Row | Compound | Cured [%]
21 | Cn1c(=O)nc2n(-c3ccc(Cl)cc3Cl)c3ccccc3nc-2c1=O | 0
22 | Cn1c(=O)nc2n(-c3ccc(Cl)c(Cl)c3)c3ccccc3nc-2c1=O | 0
23 | O=c1nc2n(-c3ccc(Cl)cc3)c3ccccc3nc-2c(=O)[nH]1 | 0
24 | Cc1cc(Cl)ccc1-n1c2nc(=O)n(C)c(=O)c-2nc2ccccc21 | 0
25 | Cn1c(=O)nc2n(-c3cccc(F)c3)c3ccccc3nc-2c1=O | 40

system: Mus musculus; test: Oral antimalarial activity against Plasmodium vinckei in mice (Mus musculus) measured as % cured and increase in MST (days) at 50 mg/kg dose.; format: functional

Row | Compound | Cured [%]
26 | Cn1c(=O)nc2n(-c3ccc(Cl)cc3Cl)c3ccccc3nc-2c1=O | 0
27 | Cn1c(=O)nc2n(-c3ccc(Cl)c(Cl)c3)c3ccccc3nc-2c1=O | 0
28 | O=c1nc2n(-c3ccc(Cl)cc3)c3ccccc3nc-2c(=O)[nH]1 | 0
29 | Cc1cc(Cl)ccc1-n1c2nc(=O)n(C)c(=O)c-2nc2ccccc21 | 80
30 | Cn1c(=O)nc2n(-c3cccc(F)c3)c3ccccc3nc-2c1=O | 40

system: Mus musculus; test: Oral antimalarial activity against Plasmodium vinckei in mice (Mus musculus) measured as % cured and increase in MST (days) at 75 mg/kg dose.; format: functional

Row | Compound | Cured [%]
31 | Cn1c(=O)nc2n(-c3ccc(Cl)cc3Cl)c3ccccc3nc-2c1=O | 40
32 | Cn1c(=O)nc2n(-c3ccc(Cl)c(Cl)c3)c3ccccc3nc-2c1=O | 0
33 | O=c1nc2n(-c3ccc(Cl)cc3)c3ccccc3nc-2c(=O)[nH]1 | 0
34 | Cc1cc(Cl)ccc1-n1c2nc(=O)n(C)c(=O)c-2nc2ccccc21 | 40
35 | Cn1c(=O)nc2n(-c3cccc(F)c3)c3ccccc3nc-2c1=O | 20

system: Mus musculus; test: Parenteral antimalarial activity against Plasmodium vinckei vinckei in mice (Mus musculus) measured as % cured and increase in MST (days) at 10 mg/kg dose.; format: functional

Row | Compound | Cured [%] | MST [days]
36 | Cn1c(=O)nc2n(-c3ccc(Cl)cc3Cl)c3ccccc3nc-2c1=O | 0 | 
37 | Cn1c(=O)nc2n(-c3ccc(Cl)c(Cl)c3)c3ccccc3nc-2c1=O | 0 | 0.5
38 | O=c1nc2n(-c3ccc(Cl)cc3)c3ccccc3nc-2c(=O)[nH]1 | 0 | 0
39 | Cn1c(=O)nc2n(-c3cccc(F)c3)c3ccccc3nc-2c1=O | 0 | 

system: Mus musculus; test: Oral antimalarial activity against Plasmodium vinckei vinckei in mice (Mus musculus) measured as % cured and increase in MST (days) at 100 mg/kg dose.; format: functional

Row | Compound | Cured [%]
40 | Cn1c(=O)nc2n(-c3ccc(Cl)cc3Cl)c3ccccc3nc-2c1=O | 80
41 | Cn1c(=O)nc2n(-c3ccc(Cl)c(Cl)c3)c3ccccc3nc-2c1=O | 0
42 | O=c1nc2n(-c3ccc(Cl)cc3)c3ccccc3nc-2c(=O)[nH]1 | 0
43 | Cc1cc(Cl)ccc1-n1c2nc(=O)n(C)c(=O)c-2nc2ccccc21 | 60
44 | Cn1c(=O)nc2n(-c3cccc(F)c3)c3ccccc3nc-2c1=O | 80

system: Mus musculus; test: Oral antimalarial activity against Plasmodium vinckei vinckei in mice (Mus musculus) measured as % cured and increase in MST (days) at 150 mg/kg dose.; format: functional

Row | Compound | Cured [%]
45 | Cn1c(=O)nc2n(-c3ccc(Cl)cc3Cl)c3ccccc3nc-2c1=O | 60
46 | Cn1c(=O)nc2n(-c3ccc(Cl)c(Cl)c3)c3ccccc3nc-2c1=O | 40
47 | O=c1nc2n(-c3ccc(Cl)cc3)c3ccccc3nc-2c(=O)[nH]1 | 0
48 | Cc1cc(Cl)ccc1-n1c2nc(=O)n(C)c(=O)c-2nc2ccccc21 | 40
49 | Cn1c(=O)nc2n(-c3cccc(F)c3)c3ccccc3nc-2c1=O | 40

system: Mus musculus; test: Parenteral antimalarial activity against Plasmodium vinckei vinckei in mice (Mus musculus) measured as increase in mean survival time at 20 mg/kg dose.; format: functional

Row | Compound | MST [days]
50 | Cn1c(=O)nc2n(-c3ccc(Cl)cc3Cl)c3ccccc3nc-2c1=O | 0
51 | Cc1cc(Cl)ccc1-n1c2nc(=O)n(C)c(=O)c-2nc2ccccc21 | 1.2
52 | Cn1c(=O)nc2n(-c3cccc(F)c3)c3ccccc3nc-2c1=O | 1.7

system: Mus musculus; test: Parenteral antimalarial activity against Plasmodium vinckei vinckei in mice (Mus musculus) measured as increase in mean survival time at 25 mg/kg dose.; format: functional

Row | Compound | MST [days]
53 | Cn1c(=O)nc2n(-c3ccc(Cl)cc3Cl)c3ccccc3nc-2c1=O | -1.2
54 | Cc1cc(Cl)ccc1-n1c2nc(=O)n(C)c(=O)c-2nc2ccccc21 | -1.4
55 | Cn1c(=O)nc2n(-c3cccc(F)c3)c3ccccc3nc-2c1=O | 2

system: Mus musculus; test: Parenteral antimalarial activity against Plasmodium vinckei vinckei in mice (Mus musculus) measured as increase in mean survival time at 30 mg/kg dose.; format: functional

Row | Compound | MST [days]
56 | Cn1c(=O)nc2n(-c3ccc(Cl)cc3Cl)c3ccccc3nc-2c1=O | -1
57 | Cc1cc(Cl)ccc1-n1c2nc(=O)n(C)c(=O)c-2nc2ccccc21 | -2
58 | Cn1c(=O)nc2n(-c3cccc(F)c3)c3ccccc3nc-2c1=O | 2.2

system: Mus musculus; test: Parenteral antimalarial activity against Plasmodium vinckei in mice (Mus musculus) measured as % cured and increase in MST (days) at 25 mg/kg dose.; format: functional

Row | Compound | MST [days]
59 | Cn1c(=O)nc2n(-c3ccc(Cl)c(Cl)c3)c3ccccc3nc-2c1=O | 0
60 | O=c1nc2n(-c3ccc(Cl)cc3)c3ccccc3nc-2c(=O)[nH]1 | 0

system: Mus musculus; test: Parenteral antimalarial activity against Plasmodium vinckei in mice (Mus musculus) measured as % cured and increase in MST (days) at 30 mg/kg dose.; format: functional

Row | Compound | MST [days]
61 | Cn1c(=O)nc2n(-c3ccc(Cl)c(Cl)c3)c3ccccc3nc-2c1=O | 1
62 | O=c1nc2n(-c3ccc(Cl)cc3)c3ccccc3nc-2c(=O)[nH]1 | 0

system: Mus musculus; test: Parenteral antimalarial activity against Plasmodium vinckei in mice (Mus musculus) measured as increase in mean survival time at 10 mg/kg dose.; format: functional

Row | Compound | MST [days]
63 | Cn1c(=O)nc2n(-c3ccc(Cl)cc3Cl)c3ccccc3nc-2c1=O | 1.7
64 | Cn1c(=O)nc2n(-c3cccc(F)c3)c3ccccc3nc-2c1=O | 0

system: Mus musculus; test: Parenteral antimalarial activity against Plasmodium vinckei in mice (Mus musculus) measured as increase in mean survival time at 15 mg/kg dose.; format: functional

Row | Compound | MST [days]
65 | Cn1c(=O)nc2n(-c3ccc(Cl)cc3Cl)c3ccccc3nc-2c1=O | 0.5
66 | Cc1cc(Cl)ccc1-n1c2nc(=O)n(C)c(=O)c-2nc2ccccc21 | 1.2
67 | Cn1c(=O)nc2n(-c3cccc(F)c3)c3ccccc3nc-2c1=O | 0.2

system: Mus musculus; test: Oral antimalarial activity against Plasmodium vinckei vinckei in mice (Mus musculus) measured as increase in mean survival time at 100 mg/kg dose.; format: functional

Row | Compound | MST [days]
68 | Cn1c(=O)nc2n(-c3ccc(Cl)cc3Cl)c3ccccc3nc-2c1=O | 1.5
69 | Cn1c(=O)nc2n(-c3ccc(Cl)c(Cl)c3)c3ccccc3nc-2c1=O | 0.5
70 | O=c1nc2n(-c3ccc(Cl)cc3)c3ccccc3nc-2c(=O)[nH]1 | 0
71 | Cc1cc(Cl)ccc1-n1c2nc(=O)n(C)c(=O)c-2nc2ccccc21 | 2
72 | Cn1c(=O)nc2n(-c3cccc(F)c3)c3ccccc3nc-2c1=O | 0

system: Mus musculus; test: Oral antimalarial activity against Plasmodium vinckei in mice (Mus musculus) measured as increase in mean survival time at 150 mg/kg dose.; format: functional

Row | Compound | MST [days]
73 | Cn1c(=O)nc2n(-c3ccc(Cl)cc3Cl)c3ccccc3nc-2c1=O | 1.5
74 | O=c1nc2n(-c3ccc(Cl)cc3)c3ccccc3nc-2c(=O)[nH]1 | 0
75 | Cc1cc(Cl)ccc1-n1c2nc(=O)n(C)c(=O)c-2nc2ccccc21 | 1.5
76 | Cn1c(=O)nc2n(-c3cccc(F)c3)c3ccccc3nc-2c1=O | 0

system: Mus musculus; test: Oral antimalarial activity against Plasmodium vinckei in mice (Mus musculus) measured as increase in mean survival time at 25 mg/kg dose; format: functional

Row | Compound | MST [days]
77 | Cn1c(=O)nc2n(-c3cccc(F)c3)c3ccccc3nc-2c1=O | 0

system: Mus musculus; test: Oral antimalarial activity against Plasmodium vinckei in mice (Mus musculus) measured as increase in mean survival time at 25 mg/kg dose.; format: functional

Row | Compound | MST [days]
78 | Cn1c(=O)nc2n(-c3ccc(Cl)cc3Cl)c3ccccc3nc-2c1=O | 0
79 | Cn1c(=O)nc2n(-c3ccc(Cl)c(Cl)c3)c3ccccc3nc-2c1=O | 0
80 | O=c1nc2n(-c3ccc(Cl)cc3)c3ccccc3nc-2c(=O)[nH]1 | 0
81 | Cc1cc(Cl)ccc1-n1c2nc(=O)n(C)c(=O)c-2nc2ccccc21 | 0.5

system: Mus musculus; test: Oral antimalarial activity against Plasmodium vinckei vinckei in mice (Mus musculus) measured as increase in mean survival time at 50 mg/kg dose.; format: functional

Row | Compound | MST [days]
82 | Cn1c(=O)nc2n(-c3ccc(Cl)cc3Cl)c3ccccc3nc-2c1=O | 1.3
83 | Cn1c(=O)nc2n(-c3ccc(Cl)c(Cl)c3)c3ccccc3nc-2c1=O | 0
84 | O=c1nc2n(-c3ccc(Cl)cc3)c3ccccc3nc-2c(=O)[nH]1 | 0
85 | Cc1cc(Cl)ccc1-n1c2nc(=O)n(C)c(=O)c-2nc2ccccc21 | 1.5
86 | Cn1c(=O)nc2n(-c3cccc(F)c3)c3ccccc3nc-2c1=O | 0

system: Mus musculus; test: Oral antimalarial activity against Plasmodium vinckei vinckei in mice (Mus musculus) measured as increase in mean survival time at 75 mg/kg dose.; format: functional

Row | Compound | MST [days]
87 | Cn1c(=O)nc2n(-c3ccc(Cl)cc3Cl)c3ccccc3nc-2c1=O | 1
88 | Cn1c(=O)nc2n(-c3ccc(Cl)c(Cl)c3)c3ccccc3nc-2c1=O | 0.5
89 | O=c1nc2n(-c3ccc(Cl)cc3)c3ccccc3nc-2c(=O)[nH]1 | 0
90 | Cc1cc(Cl)ccc1-n1c2nc(=O)n(C)c(=O)c-2nc2ccccc21 | 3.2
91 | Cn1c(=O)nc2n(-c3cccc(F)c3)c3ccccc3nc-2c1=O | 2.5
